Laboratory results from US10034836B2, “Formulations of guanylate cyclase C agonists and methods of use” (SYNERGY PHARMACEUTICALS, INC., priority 2008, dated 2018).
Where a SMILES comes first, the peptide text is derived from it. Bridges are numbered along the chain shown (N, C = ends).

How the values were obtained:
cynomolgus monkeys = experiment: Repeated oral dose toxicity study of SP-304 in cynomolgus monkeys (14 days); format: in vivo
Experimental: The primary purpose of this experiment was to evaluate the toxicity and pharmacokinetics of a repeated oral dose of SP-304 in cynomolgus monkeys. […] Monkeys returned to normal stool consistency within 24-48 hours following the last dose of SP-304.

[1] = test system: healthy male and female subjects; experiment: Phase 1 single ascending oral dose study, safety and tolerability; conditions: healthy volunteers
[2] = format: in vitro ADME
Experimental: FIG. 1B: Schematic representation of HPLC chromatographic analyses of SP-304 samples after incubation with SGF for 0 and 120 min, respectively. The arrows show the elution position of SP-304.
The stability of SP-304 in the presence of simulated gastric fluid (SGF) was determined by biological activity measurements and HPLC analyses (FIGS. 1A & 1B). SP-304 (final concentration of 8.5 mg/ml) was incubated in SGF (Proteose peptone (8.3 g/liter; Difco), D-Glucose (3.5 g/liter; Sigma), NaCl (2.05 g/liter; Sigma), KH2PO4 (0.6 g/liter; Sigma), CaCl2 (0.11 g/liter), KCl (0.37 g/liter; Sigma), Porcine bile (final 1× concentration 0.05 g/liter; Sigma) in PBS, Lysozyme (final 1× concentration 0.10 g/liter; Sigma) in PBS, Pepsin (final 1× concentration 0.0133 g/liter; Sigma) in PBS). SGF was made on the day of the experiment and the pH was adjusted to 2.0±0.1 using HCl or NaOH as necessary. After the pH adjustment, SGF is filter sterilized with 0.22 μm membrane filters. SP-304 (final concentration of 8.5 mg/ml) was incubated in SGF at 37° C. for 0, 15, 30, […] and 120 min, respectively, in triplicate aliquots. Following incubations, samples were snap frozen in dry ice then stored in a −80° C. freezer until assayed in duplicate.
Here, aliquots of the two samples were analyzed by HPLC using a previously developed method for analyzing SP-304 peptide. […]

[3] = Stability in simulated intestinal fluid (SIF), biological activity by cGMP synthesis in T84 cells; format: in vitro ADME
Experimental: FIG. 2A: Biological activity of SP-304 incubated for varying lengths of time in simulated intestinal fluid (SIF). SP-304 samples were incubated for 0, 30, 60, 90, 150, and 300 min, respectively, and then tested for their ability to stimulate cGMP synthesis in T84 cells. The cGMP stimulation activity in the sample at 0 min of incubation time in SIF was taken as 100% biological activity. The activities of the other SP-304 incubation samples were calculated as the percentage of activity relative to that of the 0 min sample. Data points shown are the average of triplicate measurements±SD.
(§1) FIG. 7A: Biological activity of SP-333 incubated for varying lengths of time in simulated intestinal fluid (SIF). SP-333 samples incubated for 0, 5, 10, 30, 60, and 120 min, respectively, were tested for their ability to stimulate cGMP synthesis in T84 cells. The control sample marked as C120 was produced by incubating SP-333 with heat inactivated SIF for 120 min. Samples from the incubations were removed and heated at 95° C. for 5 min to inactivate digestive enzymes and then used to stimulate cyclic GMP synthesis in T84 cells. The cGMP stimulation activity in the sample at 0 min of incubation time in SIF was taken as 100% biological activity. The activities of the other SP-304 incubation samples were calculated as the percentage of activity relative to that of the 0 min sample. Data points shown are the average of triplicate measurements±SD.
as §1, with “FIG. 7B:” for “FIG. 7A:”, “of SP-332” for “of SP-333”, “incubating SP-332” for “incubating SP-333”
FIG. 7C: Biological activity of SP-304 incubated for varying lengths of time in simulated intestinal fluid (SIF). SP-304 samples incubated for 0, 10, and 60 min, respectively, were tested for their ability to stimulate cGMP synthesis in T84 cells. The control samples marked as C0 and C60 were produced by incubating SP-304 with heat inactivated SIF for 0 and 60 min, respectively. Samples from the incubations were removed and heated at 95° C. for 5 min to inactivate digestive enzymes and then used to stimulate cyclic GMP synthesis in T84 cells. The cGMP stimulation activity in the sample at 0 min of incubation time in SIF was taken as 100% biological activity. The activities of the other SP-304 incubation samples were calculated as the percentage of activity relative to that of the 0 min sample. […]
FIGS. 7G-1-7G-5: Incubation of SP-333 with SIF for 2, 6, 12 and 24 hrs. Effect of SIF digestion on the activity of SP-333 in T84 stimulation assay was determined (FIG. 7G-1) and samples were also analyzed by HPLC (FIGS. 7G2-5). […]
The stability of SP-304 was also evaluated after incubation with simulated intestinal fluid (SIF) by measuring its biological activity and by HPLC analyses (FIGS. 2A & 2B). […]

CC(C)C[C@H](NC(=O)[C@@H]1CSSC[C@@H]2NC(=O)[C@H](CC(C)C)NC(=O)[C@H](CCC(=O)O)NC(=O)[C@@H](NC(=O)[C@H](CCC(=O)O)NC(=O)[C@H](CC(=O)O)NC(=O)[C@@H](N)CC(N)=O)CSSC[C@H](NC(=O)[C@H](C)NC(=O)[C@H](C(C)C)NC(=O)[C@H](CC(N)=O)NC(=O)[C@H](C(C)C)NC2=O)C(=O)N[C@@H]([C@@H](C)O)C(=O)NCC(=O)N1)C(=O)O [SP-304, Asn^1-Asp^2-Glu^3-Cys^4-Glu^5-Leu^6-Cys^7-Val^8-Asn^9-Val^10-Ala^11-Cys^12-Thr^13-Gly^14-Cys^15-Leu^16] (H-NDECELCVNVACTGCL-OH; disulfide 4-12, 7-15)
time to return to normal stool consistency following the last dose (cynomolgus monkeys; cynomolgus monkey, in vivo): 24 to 48 h
tolerability of repeated oral dose (cynomolgus monkeys; daily dose of 250 mg for 14 consecutive days, cynomolgus monkeys): well tolerated
severe adverse events (SAEs) ([1]; 0.1 to 48.6 mg single oral dose): no severe adverse events
tolerability of single oral dose ([1]; 0.1 to 48.6 mg): well-tolerated
major HPLC peak following incubation with SGF [2]: did not change
loss of potency following digestion with SIF [3]: about 30%
reduction in biological activity after incubation in SIF [3]: 30%
reduction of biological activity following incubation in SIF ([3]; pH 6): about 30%
